Assay results from patent US6989364B1, “Methods for treating cardiac hypertrophy by administering IFN-γ” (Genentech, Inc., priority 1998, dated 2006).

Tests used:
[1] = system: adult rat cardiac myocytes; assay: Inhibition of phenylephrine-induced spreading response of adult myocytes; assay type: cell-based; conditions: IFN-γ 500 U/ml, PE 10^−5 M, 72 hr
Method: FIGS. 3A–3F Inhibition of phenylephedrine (PE)-induced spreading response by IFN-γ. Myocytes were pre-incubated with saline vehicle or IFN-γ (500 U/ml) on day of isolation. A second addition of vehicle or IFN-γ was performed 24h after isolation, along with the addition of either vehicle or PE (10^−5 M). After an additional 72 hr incubation, cells were fixed in glutaraldehyde, stained with eosin Y and viewed by fluorescence microscopy. A, B, C Cardiac myocytes after 4 days in culture: control, PE, and PE+IFN-γ, respectively. D, E, F Histographs showing maximum breadth of rod shaped cardiac myocytes versus percent frequency of breadth occurrence. The maximum breadth of rod-shaped cells was determined by fluorescence microscopy and imaging software. At least 200 rod shaped cells from a single experiment were examined per group. […] P<0.001 for all group comparisons. […]
Isolated adult rat myocytes were plated on laminin-coated plates at a density of 3×10^3 cells/ml. After 72 hours of appropriate stimulation, the cells were fixed with gluteraldehyde and stained with Eosin Y. Images of rod shaped cells were captured under fluorescent microscopy and maximum breadth was determined using imaging software (Simple 32, Compix Imaging, Mars, Pa.).

[2] = system: male Sprague/Dawley (SD) rats; assay: Hemodynamic assessment (MAP) in rats treated with fluprostenol and/or IFN-γ; assay type: in vivo, rat; conditions: conscious rats, 14 days of treatment (FIG. 5)
Method: Hemodynamic assessment Thirteen days after treatment, rats were anesthetized with intraperitoreal injection of ketamine 80 mg/kg (Aveco Co., Inc., Fort Dodge, Iowa) and xylazine 10 mg/kg (Rugby Laboratories, Inc., Rockville Center, N.Y.). A catheter (PE-10 fused with PE 50) filled with heparin-saline solution (50 U/ml) was implanted into the abdominal aorta, via the right femoral artery, for measurement of mean arterial pressure (MAP) and heart rate (HR). The catheter was exteriorized and fixed at the back of the neck.
One day after catheterization, the arterial catheter was connected to a Model CP 10 pressure transducer (Century Technology Company, Inglewood, Calif., USA) that was coupled to a Grass Model 7 polygraph (Grass Instruments, Quincy, Mass., USA). MAP and HR were measured simultaneously in conscious, unrestrained rats.

**Q.** With “IFN-γ: recombinant mouse IFN-γ (Genentech, Inc., South San Francisco, Calif., or Genzyme, Cambridge, Mass.)” as the substance, how does the “Inhibition of phenylephrine-induced myocyte spreading” value [1] read?
**A.** can also inhibit spreading induced by phenylephrine

**Q.** And the “Effect of IFN-γ on MAP of animals treated with fluprostenol” value [2]?
**A.** did not affect the MAP

**Q.** And the “Mean arterial pressure (MAP) compared to vehicle” value [2]?
**A.** had no effect on MAP
